Entries after “also recorded” stand apart in the source; their conditions may differ.
What was measured:
[1] = system: mouse peritoneal macrophages; assay: Cytotoxicity assays (MTT cell respiration and neutral red uptake); assay type: cell-based; conditions: isolated phytocannabinoids, 24 hours incubation, highest 10 μM concentration, FIG. 1
Procedure: (§1) Peritoneal macrophages were obtained from mice as previously described by Rossi et al. (Rossi et al. 2010). Briefly, to evoke the production of peritoneal exudates rich in macrophages, mice were injected intraperitoneally (i.p.) with 1 ml of 10% sterile thioglycollate (Sigma, Milan, Italy). After 4 days, mice were euthanized and peritoneal macrophages were collected and seeded in appropriate plates for performing in vitro experiments.
Peritoneal macrophages were cultured in Dulbecco's modified Eagle's medium (DMEM) supplemented with 10% fetal bovine serum. The inflammatory response in peritoneal macrophages was induced by lipopolysaccharide (LPS) from Escherichia coli serotype 0111:B4 (1 μg/ml). The response in macrophages was measured after 18 h LPS incubation.
Cell viability was assessed by evaluating cell respiration as well as neutral red (NR) uptake. Cell respiration was assessed by the mitochondrial-dependent reduction of 3-(4,5-dimethylthiazol-2-yl)-2,5-diphenyltetrazolium bromide (MTT) to formazan. After incubation with one of the phytocannabinoids for 24 hours, macrophages (1×10^5 cells per well seeded in a 96-well plate) were incubated with MTT (250 μg/ml) for 1 h.
The extent of reduction of MTT to formazan was quantitated by measuring the optical density at 490 nm (iMark™ microplate assorbance reader, BioRad). […]

[2] = system: LPS-stimulated nitrite levels in mouse peritoneal macrophages; assay: Nitrites measurement in medium of LPS-stimulated macrophages; assay type: cell-based; conditions: non-cytotoxic concentrations (0.1-10 pM), 30 min pre-treatment, then LPS 1 μg/ml 18 hours, FIG. 3 and 4
Procedure: as §1, with “Briefly,” for “Peritoneal macrophages were obtained from mice as previously described by Rossi et al. (Rossi et al. 2010). Briefly,”
Peritoneal macrophages were cultured in Dulbecco's modified Eagle's medium (DMEM) supplemented with 10% fetal bovine serum. […] The response in macrophages was measured after 18 h LPS incubation.
Nitrites, stable metabolites of NO, were measured in macrophages medium as previously described. Macrophages (5×10^5 cells per well seeded in a 24-well plate) were incubated with test article ([…]) for 30 min, and subsequently with LPS (1 μg/ml) for 18 hours.
The test articles were used at non-cytotoxic concentrations as a pre-treatment for 30 min before LPS-stimulation.

[3] = system: DNBS-induced colitis mice; assay: DNBS-induced colitis, body weight and colon weight/colon length ratio; assay type: in vivo, mouse
Procedure: (§2) Cannabigerol (CBG), cannabichromene (CBC) and tetrahydrocannabivarin (THCV) were dissolved in ethanol/Tween20/saline. Animals were placed in groups and administered with test article (60 μl per mouse) via IP once daily. Treatment started 3 days before DNBS administration for the preventative treatment experiments or 1 day after DNBS administration for the curative treatments. Test article was administered daily until the sacrifice of the animals, 3 days after DNBS treatment. THCV was only tested for a curative effect.
(§3) Colitis was induced in mice by the intra-colonic administration of DNBS. Briefly, mice were anesthetized and DNBS (8 mg/mouse) was inserted into the colon using a polyethylene catheter (1 mm in diameter) via the rectum (4.5 cm from the anus). Three days after DNBS administration, all animals were euthanized by asphyxiation with CO2. The abdomen was opened by a midline incision and the colon removed, isolated from surrounding tissues, opened along the anti-mesenteric border, rinsed, weighed, length measured, and processed for evaluations.
The colon weight/colon length ratio activity were determined as index of inflammation. Body weight was also evaluated.

[4] = system: inducible nitric oxide synthase (iNOS); assay: iNOS expression in full-thickness colons by western blot, DNBS-induced colitis; assay type: in vivo, mouse; conditions: DNBS-treated mice, FIG. 11
Procedure: as §2, §3
iNOS expression was measured in full-thickness colons from control and DNBS-treated mice by western blot analysis.

[5] = system: DNBS model of intestinal bowel disease in mice; conditions: cited from earlier work
[6] = post-treatment (curative), IP once daily from 1 day after DNBS
[7] = pre-treatment (preventative), IP once daily from 3 days before DNBS
[8] = treatment after induction of colitis (curative), IP once daily from 1 day after DNBS

| SMILES | cytotoxicity / cell viability [1] | LPS-stimulated nitrite levels [2] | colon weight:colon length ratio [3, 6] | body weight (decrease associated with the inflammatory response) [3, 7] | colon weight:colon length ratio [3, 7] | body weight (decrease associated with the inflammatory response) [3, 8] | level of expression of iNOS in colonic tissues [4] | anti-inflammatory effect in DNBS model [5] |
| --- | --- | --- | --- | --- | --- | --- | --- | --- |
| CCCCCc1cc(O)c2c(c1)OC(C)(CCC=C(C)C)C=C2 (centres unmarked) [CBC, Cannabichromene] | significantly reduced cell viability | reduce LPS-stimulated nitrite production | decrease in the colon weight:length ration however this was not as statistically significant | significant (p<0.05) prevention of the decrease in bodyweight | significant (p<0.05) reduction | did not however result in a decrease in body weight | did not show a reduction |  |
| C=C(C)[C@@H]1CCC(C)=C[C@H]1c1c(O)cc(CCCCC)cc1O [CBD, Cannabidiol] |  |  |  |  |  |  |  | anti-inflammatory effect |
| C=C(C)[C@@H]1CCC(C)=C[C@H]1c1c(O)cc(CCC)cc1O [CBDV, Cannabidivarin] |  | reduce LPS-stimulated nitrite production |  |  |  |  |  |  |
| CCCCCc1cc(O)c(C/C=C(\C)CCC=C(C)C)c(O)c1 [CBG, Cannabigerol] |  | significantly reduced; also recorded: reduce LPS-stimulated nitrite production | significant (p<0.05) reduction | highly statistically significant (p<0.001) prevention of the decrease in bodyweight | significant (p<0.05) reduction | did however not result in a decrease in body weight | statistically significantly (p<0.05) lower |  |
| CCCc1cc(O)c2c(c1)OC(C)(C)[C@@H]1CCC(C)=C[C@@H]21 [THCV, Tetrahydrocannabivarin] | significantly reduced cell viability | significantly reduced; also recorded: reduce LPS-stimulated nitrite production | significant (p<0.05) reduction |  |  | prevention of the decrease in bodyweight that is associated with the inflammatory response, however this decrease was not statistically significant | statistically significantly (p<0.001) lower |  |
